From ChEMBL document CHEMBL5325424, “Structural design, synthesis, and anti-Trypanosomatidae profile of new Pyridyl-thiazolidinones” (Eur J Med Chem, 2023)
Active and inactive are the calls of the source. No cut-off for these calls is given here.

Columns and labels:
Trypanosoma cruzi [1] = test: Antitrypanosomal activity against Trypanosoma cruzi Tulahuen amastigotes infected in mouse L929 cells assessed as parasite growth inhibition measured after 7 days by CPRG/Nonidet based assay; assay type: functional, organism-based; details: L929, 168 h
[2] = Cytotoxicity against mouse RAW264.7 cells incubated for 48 hrs by MTT assay; assay type: toxicity, cell-based
[3] = Selectivity index, ratio of CC50 for mouse RAW264.7 cells to IC50 for Trypanosoma cruzi Y trypomastigotes infected in African green monkey Vero cells; assay type: toxicity; details: read-out: Ratio CC50/IC50
Trypanosoma cruzi [4] = test: Antitrypanosomal activity against Trypanosoma cruzi Y trypomastigotes infected in African green monkey Vero cells assessed as parasite growth inhibition incubated for 24 hrs by hemocytometry; assay type: functional, organism-based
[5] = Selectivity index, ratio of CC50 for mouse RAW264.7 cells to IC50 for Leishmania amazonensis WHOM/00 LTB 0016 promastigotes; assay type: toxicity; details: read-out: Ratio CC50/IC50
[6] = Selectivity index, ratio of CC50 for mouse RAW264.7 cells to IC50 for Trypanosoma cruzi Tulahuen amastigotes infected in mouse L929 cells; assay type: toxicity, cell-based; details: read-out: Ratio CC50/IC50
[7] = Selectivity index, ratio of CC50 for mouse RAW264.7 cells to IC50 for Leishmania amazonensis WHOM/00 LTB 0016 amastigotes infected in mouse RAW264.7 cells; assay type: toxicity, cell-based; details: read-out: Ratio CC50/IC50
Leishmania amazonensis [8] = test: Antileishmanial activity against Leishmania amazonensis WHOM/00 LTB 0016 promastigotes assessed as parasite growth inhibition incubated for 72 hrs; assay type: functional, organism-based; details: WHOM/00 LTB 0016, 72 h
Leishmania amazonensis [9] = test: Antileishmanial activity against Leishmania amazonensis WHOM/00 LTB 0016 amastigotes infected in mouse RAW264.7 cells assessed as parasite growth inhibition incubated for 24 hrs by panoptic staining based assay; assay type: functional, organism-based; details: WHOM/00 LTB 0016, RAW264.7, 24 h
Splenocyte = test: Immunomodulatory activity in mouse splenocytes assessed as reduction in IL-6 level at 10 ug/ml incubated for 24 hrs by flow cytometry; assay type: functional, cell-based; details: dose 10.0 µg/ml

SMILES | IC50 (Trypanosoma cruzi [1]) [µM] | CC50 at 48 h [2] [µM] | selectivity ratio [3] | IC50 (Trypanosoma cruzi [4]) [µM] | selectivity ratio [5] | selectivity ratio [6] | selectivity ratio [7] | IC50 (Leishmania amazonensis [8]) [µM] | IC50 (Leishmania amazonensis [9]) [µM] | Activity (Splenocyte)
C/C(=N\N=C1/NC(=O)CS1)c1ccncc1 | 6.3 | 276 | 1.5 | 185 | 0.3 | 43.8 | 0.64 | 854 | 427 | 
C/C(=N\NC(=S)Nc1ccccc1)c1ccncc1 | 2.88 | 740 | 583 | 1.27 | 17.9 | 256 | 2 | 41.4 | 370 | 
O=C1CS/C(=N/N=C/c2ccccn2)N1 | 8.21 | 486 | 42.6 | 11.3 | 6 | 59.3 | 7.74 | 80.6 | 62.8 | 
CNC(=S)N/N=C(\C)c1ccccn1 | 0.76 | 7.49 | 0.08 | 84.4 | 0.1 | 9.75 | 0.27 | 69.5 | 27.2 | 
CNC(=S)N/N=C(\C)c1ccncc1 | 235 | 567 | 11.1 | 51.1 | 2.43 | 2.4 | 1.18 | 233 | 481 | 
CC1(C)S/C(=N/N=C/c2ccccn2)NC1=O | 1.61 | 449 | 5 | 89.5 | 3.7 | 279 | 1.11 | 123 | 403 | 
N/C(S)=N/N=C/c1ccccn1 | 1.6 | 8.65 | 0.08 | 99.8 | 0.54 | 5.37 | 0.01 | 15.9 | 555 | 
CC(C)C1S/C(=N/N=C/c2ccccn2)N(C)C1=O (stereo not given) | 0.75 | 267 |  | 11 | 13.2 | 355 | 14.3 | 20.2 | 18.6 | 
C/C(=N\N=C1\SC(C(C)C)C(=O)N1C)c1ccncc1 (stereo not given) | 68.9 | 356 | 1 | 344 | 0.5 | 5.17 | 5.17 | 689 | 68.9 | 
CN1C(=O)C(C)(C)S/C1=N/N=C/c1ccccn1 | 0.81 | 387 | 7.2 | 53.9 | 10.1 | 477 | 1.01 | 38.3 | 380 | 
C/C(=N\N=C1\NC(=O)CS1)c1ccccn1 | 9.15 | 134 | 3.5 | 38 | 8.9 | 14.7 | 0.55 | 15.1 | 241 | 
C/C(=N\NC(=S)Nc1ccccc1)c1ccccn1 | 0.07 | 5.77 | 1 | 5.77 | 0.13 | 82.4 | 0.06 | 41.4 | 85.5 | 
C/C(=N\N=C1/NC(=O)C(C(C)C)S1)c1ccncc1 (stereo not given) | 72.4 | 179 | 0.5 | 362 | 0.2 | 2.46 | 2.46 | 724 | 72.4 | 
C/C(=N\N=C1\SC(C(C)C)C(=O)N1c1ccccc1)c1ccncc1 (stereo not given) | 0.89 | 296 | 197 | 1.5 | 13.2 | 332 | 51.9 | 22.4 | 5.7 | 
C/C(=N\N=C1/SCC(=O)N1c1ccccc1)c1ccccn1 | 8.74 | 223 | 53.2 | 4.2 | 0.9 | 25.5 | 0.69 | 259 | 322 | 
C/C(=N\NC(N)=S)c1ccncc1 | 242 | 464 | 2.76 | 168 | 4.5 | 1.91 | 0.9 | 104 | 515 | 
C/C(=N\NC(N)=S)c1ccccn1 | 1.39 | 16.1 | 0.11 | 138 | 0.8 | 11.6 | 0.03 | 20 | 515 | 
CC(C)C1S/C(=N/N=C/c2ccccn2)NC1=O (stereo not given) | 0.84 | 256 | 5.8 | 43.9 | 6.4 | 305 | 29.2 | 40.3 | 8.77 | 
C/C(=N\N=C1/SCC(=O)N1c1ccccc1)c1ccncc1 | 0.62 | 155 | 0.5 | 322 | 0.2 | 250 | 0.48 | 644 | 323 | 
CCCCCCCCCCCCCCCCOP(=O)([O-])OCC[N+](C)(C)C [MILTEFOSINE] |  |  |  |  | 8.79 |  | 17.5 | 15.8 | 7.08 | Active
CN1C(=O)CS/C1=N/N=C/c1ccccn1 | 5.81 | 274 | 0.6 | 427 | 0.3 | 47.1 | 0.64 | 854 | 427 | 
CNC(=S)N/N=C/c1ccccn1 | 5.66 | 55.1 | 27 | 2.04 | 3.97 | 9.72 | 0.1 | 13.8 | 515 | 
C/C(=N\N=C1/SCC(=O)N1C)c1ccccn1 | 80.5 | 291 | 2.6 | 111 | 0.6 | 3.61 | 3.61 | 506 | 80.5 | 
O=C1CS/C(=N/N=C/c2ccccn2)N1c1ccccc1 | 3.81 | 61.9 | 0.9 | 70.9 | 0.1 | 16.2 | 0.18 | 675 | 337 | 
C/C(=N\N=C1/SCC(=O)N1C)c1ccncc1 | 7.59 | 426 | 1.1 | 403 | 0.5 | 56.2 | 1.05 | 806 | 403 | 
